Results as given in patent US20100298221A1, “2-PHENOXY NICOTINE ACID DERIVATIVE AND USE THEREOF” (BAYER SCHERING PHARMA AKTIENGESELLSCHAFT, priority 2006, published 2010).

These compounds were tested against T1, human PPARα-receptor (Homo sapiens, UniProt Q07869) (assay: Cellular transactivation assay (GAL4-PPARα chimera, luciferase reporter, CHO cells)). Conditions: CHO cells stably expressing GAL4-PPARα chimera and luciferase reporter; stimulation time 6 h.
T1 construct: expressed in transfected cells; host or cells: CHO (chinese hamster ovary) cells, stably transfected
T1 sequence (Q07869 167-468): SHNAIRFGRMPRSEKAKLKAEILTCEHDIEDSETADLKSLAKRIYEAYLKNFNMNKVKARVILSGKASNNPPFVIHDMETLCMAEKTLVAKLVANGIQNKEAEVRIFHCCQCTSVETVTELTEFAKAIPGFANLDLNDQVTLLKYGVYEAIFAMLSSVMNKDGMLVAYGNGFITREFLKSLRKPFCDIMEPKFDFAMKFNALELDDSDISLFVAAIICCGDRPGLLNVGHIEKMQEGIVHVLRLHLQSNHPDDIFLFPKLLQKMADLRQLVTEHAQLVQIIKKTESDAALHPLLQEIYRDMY
Assay type: cell-based
Text: A cellular assay is used to identify activators of the peroxisome proliferator-activated receptor alpha (PPAR-alpha).
Since mammalian cells contain different endogenous nuclear receptors which can complicate unambiguous interpretation of the results, an established chimera system is used, in which the ligand binding domain of the human PPARα-receptor is fused to the DNA binding domain of the yeast transcription factors GAL4. The GAL4-PPARα chimera thus formed is co-transfected and expressed stably in CHO cells with a reporter construct.
The GAL4-PPARα expression construct contains the ligand binding domain of PPARα (amino acids 167-468), which is PCR-amplified and cloned into the vector pcDNA3.1. This vector already contains the GAL4 DNA binding domain (amino acids 1-147) of the vector pFC2-dbd (Stratagene). The reporter construct, which contains five copies of the GAL4 binding site upstream of a thymidine kinase promoter, leads to the expression of firefly luciferase (Photinus pyralis) after activation and binding of GAL4-PPARα.
The day before the test, CHO (chinese hamster ovary) cells which stably express the above-described GAL4-PPARα chimera and luciferase reporter gene construct are plated out in 96-hole microtiter plates with 1×10^3 cells in medium (Optimem, GIBCO), 2% activated carbon-purified fetal calf serum (Hyclone), 1.35 mM sodium pyruvate (GIBCO), 0.2% sodium bicarbonate (GIBCO), and kept in a cell incubator (air humidity 96%, 5% v/v CO2, 37° C.). On the day of the test, the substances to be tested are taken up in abovementioned medium, but without addition of calf serum, and added to the cells. After a stimulation time of 6 h, the luciferase activity is measured with the aid of a video camera. The relative light units measured give a sigmoid stimulation curve as a function of the substance concentration. The EC50 values are calculated with the aid of the computer program GraphPad PRISM (Version 3.02).

| EC50 | Compound |
| --- | --- |
| 157 nM | Cc1cc(-c2ccc(C(=O)O)c(Oc3ccccc3Cl)n2)ccc1F [Example 4, 2-(2-Chlorophenoxy)-6-(4-fluoro-3-methylphenyl)nicotinic acid] |
| 33 nM | Cc1ccc(-c2ccc(C(=O)O)c(Oc3ccccc3Cl)n2)cc1F [Example 5, 2-(2-Chlorophenoxy)-6-(3-fluoro-4-methylphenyl)nicotinic acid] |
| 14 nM | Cc1ccc(-c2cc(C(F)(F)F)c(C(=O)O)c(Oc3ccccc3Cl)n2)cc1F [Example 11, 2-(2-Chlorophenoxy)-6-(3-fluoro-4-methylphenyl)-4-(trifluoromethyl)nicotinic acid] |
| 870 nM | O=C(O)c1ccc(-c2ccc(Cl)nc2)nc1Oc1ccccc1Cl [Example 16, 6′-Chloro-6-(2-chlorophenoxy)-2,3′-bipyridine-5-carboxylic acid] |
| 69 nM | N#Cc1ccc(Cl)c(Oc2nc(-c3cc(F)cc(F)c3)ccc2C(=O)O)c1 [Example 17, 2-(2-Chloro-5-cyanophenoxy)-6-(3,5-difluorophenyl)nicotinic acid] |
| 76 nM | O=C(O)c1ccc(-c2cccc(F)c2F)nc1Oc1ccccc1OC(F)(F)F [Example 26, 2-(2-Trifluoromethoxyphenoxy)-6-(2,3-difluorophenyl)nicotinic acid] |
| 34 nM | Cc1ccc(-c2nc(Oc3ccccc3Cl)c(C(=O)O)cc2F)cc1F [Example 36, 2-(2-Chlorophenoxy)-5-fluoro-6-(3-fluoro-4-methylphenyl)nicotinic acid] |
| 360 nM | O=C(O)c1cc(F)c(-c2ccc(C(F)(F)F)cc2)nc1Oc1ccccc1Cl [Example 38, 2-(2-Chlorophenoxy)-5-fluoro-6-(4-trifluoromethylphenyl)nicotinic acid] |
| 541 nM | COc1cccc(-c2cc(C(F)(F)F)c(C(=O)O)c(Oc3ccccc3Cl)n2)c1F [Example 42, 2-(2-Chlorophenoxy)-6-(2-fluoro-3-methoxyphenyl)-4-trifluoromethylnicotinic acid] |
